Laboratory results from ChEMBL document CHEMBL5465560, “Selectivity Literature for EUbOPEN Chemogenomic Library” (2024).

Tests used:
[1] = target: Rho-associated protein kinase 2 (Homo sapiens, UniProt O75116); experiment: Selectivity interaction (Kinase screening (Upstate/Millipore)) EUB0000604a ROCK2
[2] = target: Tyrosine-protein kinase Fer (Homo sapiens) (UniProt P16591); experiment: Selectivity interaction (ActivX KiNativ screen (kinase selectivity in THP-1 cell lysates)) EUB0000639a FER; assay type: subcellular; conditions: lysate, at 0.2 µM
[3] = target: T1, Ephrin type-B receptor 2 (Homo sapiens) (UniProt P29323); experiment: Selectivity interaction (Kinase panel (Invitrogen)) EUB0000639a EPHB2; conditions: at 200 nM
T1 sequence (whole entry): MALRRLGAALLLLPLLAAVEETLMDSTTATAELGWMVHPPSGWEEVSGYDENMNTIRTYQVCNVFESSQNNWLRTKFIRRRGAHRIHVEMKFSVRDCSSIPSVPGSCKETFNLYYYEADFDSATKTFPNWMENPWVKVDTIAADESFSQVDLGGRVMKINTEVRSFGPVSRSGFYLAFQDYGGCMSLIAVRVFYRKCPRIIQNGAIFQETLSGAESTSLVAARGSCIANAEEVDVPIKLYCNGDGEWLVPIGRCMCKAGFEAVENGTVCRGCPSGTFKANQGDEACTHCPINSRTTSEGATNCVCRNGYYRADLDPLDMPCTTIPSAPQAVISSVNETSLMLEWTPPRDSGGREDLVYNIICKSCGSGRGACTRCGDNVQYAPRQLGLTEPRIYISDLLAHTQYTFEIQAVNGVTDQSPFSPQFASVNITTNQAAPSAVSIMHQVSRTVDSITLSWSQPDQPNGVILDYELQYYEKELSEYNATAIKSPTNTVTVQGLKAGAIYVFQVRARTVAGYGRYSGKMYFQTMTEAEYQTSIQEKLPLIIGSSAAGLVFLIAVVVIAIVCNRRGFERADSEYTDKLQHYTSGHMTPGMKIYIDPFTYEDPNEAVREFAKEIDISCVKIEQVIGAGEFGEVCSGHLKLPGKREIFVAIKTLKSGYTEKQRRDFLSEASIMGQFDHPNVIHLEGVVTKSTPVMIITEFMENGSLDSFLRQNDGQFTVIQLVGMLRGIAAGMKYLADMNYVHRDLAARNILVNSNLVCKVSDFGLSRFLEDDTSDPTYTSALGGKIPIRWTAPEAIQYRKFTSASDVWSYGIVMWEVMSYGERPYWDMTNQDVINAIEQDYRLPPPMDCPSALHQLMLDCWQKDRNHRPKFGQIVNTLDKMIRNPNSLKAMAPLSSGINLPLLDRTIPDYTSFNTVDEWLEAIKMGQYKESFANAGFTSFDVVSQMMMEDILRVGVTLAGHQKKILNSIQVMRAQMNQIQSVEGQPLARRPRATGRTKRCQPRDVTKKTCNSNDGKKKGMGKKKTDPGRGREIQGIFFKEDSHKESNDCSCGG

[4] = target: Serine/threonine-protein kinase PLK3 (Homo sapiens, UniProt Q9H4B4); experiment: Selectivity interaction (Kinase panel (Z-LYTE Assay)) EUB0001632a PLK3; conditions: at 10 µM
Chain of Serine/threonine-protein kinase PLK3 (Q9H4B4 whole entry, looked up): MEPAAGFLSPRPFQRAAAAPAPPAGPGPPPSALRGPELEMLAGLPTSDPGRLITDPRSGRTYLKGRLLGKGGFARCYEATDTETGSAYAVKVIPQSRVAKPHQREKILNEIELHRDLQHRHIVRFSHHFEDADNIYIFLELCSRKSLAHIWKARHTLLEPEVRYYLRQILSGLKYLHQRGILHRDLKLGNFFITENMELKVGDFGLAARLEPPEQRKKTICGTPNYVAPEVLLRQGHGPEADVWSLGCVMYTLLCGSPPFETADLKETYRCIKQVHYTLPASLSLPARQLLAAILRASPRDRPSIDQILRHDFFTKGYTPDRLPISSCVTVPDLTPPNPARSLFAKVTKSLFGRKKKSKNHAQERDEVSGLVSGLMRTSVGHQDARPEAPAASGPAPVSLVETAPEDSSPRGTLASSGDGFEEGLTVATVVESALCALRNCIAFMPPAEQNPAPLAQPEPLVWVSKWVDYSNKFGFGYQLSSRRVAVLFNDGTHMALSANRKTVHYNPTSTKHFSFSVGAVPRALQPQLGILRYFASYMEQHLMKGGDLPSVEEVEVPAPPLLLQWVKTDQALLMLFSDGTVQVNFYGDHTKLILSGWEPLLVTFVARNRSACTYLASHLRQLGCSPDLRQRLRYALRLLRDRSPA

[5] = target: Tyrosine-protein kinase CSK (Homo sapiens) (UniProt P41240); conditions: at 10 µM
Chain of Tyrosine-protein kinase CSK (Homo sapiens) (P41240 2-450 limits assumed): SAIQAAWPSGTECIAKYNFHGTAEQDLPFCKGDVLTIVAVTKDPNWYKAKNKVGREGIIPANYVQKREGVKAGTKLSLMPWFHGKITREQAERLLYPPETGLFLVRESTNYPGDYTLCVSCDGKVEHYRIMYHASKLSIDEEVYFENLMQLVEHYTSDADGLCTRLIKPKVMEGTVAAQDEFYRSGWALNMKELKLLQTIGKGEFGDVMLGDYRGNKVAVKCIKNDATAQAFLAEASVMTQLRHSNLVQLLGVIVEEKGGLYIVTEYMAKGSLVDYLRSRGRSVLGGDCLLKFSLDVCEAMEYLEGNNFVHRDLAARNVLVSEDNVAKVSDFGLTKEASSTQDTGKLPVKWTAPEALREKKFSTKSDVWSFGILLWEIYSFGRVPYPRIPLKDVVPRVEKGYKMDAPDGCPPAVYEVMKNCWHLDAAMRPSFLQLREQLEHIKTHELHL

[6] = target: Protein-tyrosine kinase 6 (Homo sapiens, UniProt Q13882); experiment: Selectivity interaction (KinomeScan (DiscoverX)) EUB0000229b PTK6; conditions: at 10 µM
Chain of Protein-tyrosine kinase 6 (Q13882 whole entry, looked up): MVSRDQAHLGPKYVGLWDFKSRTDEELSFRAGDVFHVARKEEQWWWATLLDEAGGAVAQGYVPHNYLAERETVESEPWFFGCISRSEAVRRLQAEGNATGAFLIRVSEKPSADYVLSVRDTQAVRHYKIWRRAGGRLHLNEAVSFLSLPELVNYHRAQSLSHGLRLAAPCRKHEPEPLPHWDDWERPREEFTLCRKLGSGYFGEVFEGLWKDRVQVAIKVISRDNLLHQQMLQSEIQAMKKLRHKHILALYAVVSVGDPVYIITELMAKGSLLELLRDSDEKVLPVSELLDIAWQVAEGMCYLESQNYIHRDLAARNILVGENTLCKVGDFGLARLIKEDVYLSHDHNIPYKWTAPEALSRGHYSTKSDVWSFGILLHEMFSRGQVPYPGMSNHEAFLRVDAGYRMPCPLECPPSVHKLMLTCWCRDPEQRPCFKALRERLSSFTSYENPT

[7] = target: T2, Serine/threonine-protein kinase TBK1 (Homo sapiens) (UniProt Q9UHD2); experiment: Selectivity interaction (Upstate Kinase Profiler service (Millipore)) EUB0000056c TBK1; conditions: at 1 µM
T2 sequence (whole entry): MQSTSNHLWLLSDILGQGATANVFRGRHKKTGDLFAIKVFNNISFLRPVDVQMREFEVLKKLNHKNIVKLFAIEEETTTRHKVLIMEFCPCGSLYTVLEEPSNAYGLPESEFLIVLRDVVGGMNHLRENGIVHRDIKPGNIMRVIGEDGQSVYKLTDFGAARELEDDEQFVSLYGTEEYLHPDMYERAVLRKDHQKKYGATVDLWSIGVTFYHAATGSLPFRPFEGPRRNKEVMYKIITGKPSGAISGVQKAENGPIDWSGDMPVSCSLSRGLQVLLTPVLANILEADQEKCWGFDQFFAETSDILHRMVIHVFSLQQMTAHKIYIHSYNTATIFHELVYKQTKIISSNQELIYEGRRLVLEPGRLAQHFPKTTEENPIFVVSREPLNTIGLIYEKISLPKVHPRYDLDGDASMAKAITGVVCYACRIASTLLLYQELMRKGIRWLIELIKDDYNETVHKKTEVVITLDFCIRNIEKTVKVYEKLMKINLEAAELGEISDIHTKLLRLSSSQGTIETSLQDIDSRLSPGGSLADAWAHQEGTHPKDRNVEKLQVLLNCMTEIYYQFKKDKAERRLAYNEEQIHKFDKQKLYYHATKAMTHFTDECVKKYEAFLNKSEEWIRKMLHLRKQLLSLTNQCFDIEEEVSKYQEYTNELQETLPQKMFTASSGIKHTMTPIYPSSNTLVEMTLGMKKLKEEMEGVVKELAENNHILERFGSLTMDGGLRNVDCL

[8] = target: T3, Mitogen-activated protein kinase 15 (Homo sapiens) (UniProt Q8TD08); experiment: Selectivity interaction (KinomeScan (DiscoverX)) EUB0000655a MAPK15; conditions: at 10 µM
T3 sequence (whole entry): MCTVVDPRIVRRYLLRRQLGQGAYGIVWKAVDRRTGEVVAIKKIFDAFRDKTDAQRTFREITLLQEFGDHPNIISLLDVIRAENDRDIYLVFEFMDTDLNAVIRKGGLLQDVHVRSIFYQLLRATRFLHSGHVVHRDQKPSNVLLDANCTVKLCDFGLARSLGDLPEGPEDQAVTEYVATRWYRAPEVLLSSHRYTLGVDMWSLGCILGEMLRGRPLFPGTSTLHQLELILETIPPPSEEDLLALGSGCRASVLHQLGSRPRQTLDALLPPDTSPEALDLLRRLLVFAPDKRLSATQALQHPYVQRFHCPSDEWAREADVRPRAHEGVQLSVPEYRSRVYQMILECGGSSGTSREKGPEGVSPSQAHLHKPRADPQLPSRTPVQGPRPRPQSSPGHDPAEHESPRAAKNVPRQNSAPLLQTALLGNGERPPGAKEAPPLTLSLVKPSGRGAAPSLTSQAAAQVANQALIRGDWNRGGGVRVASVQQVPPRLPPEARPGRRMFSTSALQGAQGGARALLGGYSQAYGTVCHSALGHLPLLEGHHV

[9] = target: Tyrosine-protein kinase BTK (Homo sapiens, UniProt Q06187); experiment: Selectivity interaction (ActivX KiNativ screen (ex vivo kinase selectivity in human PBMCs)) EUB0001619a BTK; assay type: cell-based; conditions: PBMC, at 1 µM
Chain of Tyrosine-protein kinase BTK (Q06187 whole entry): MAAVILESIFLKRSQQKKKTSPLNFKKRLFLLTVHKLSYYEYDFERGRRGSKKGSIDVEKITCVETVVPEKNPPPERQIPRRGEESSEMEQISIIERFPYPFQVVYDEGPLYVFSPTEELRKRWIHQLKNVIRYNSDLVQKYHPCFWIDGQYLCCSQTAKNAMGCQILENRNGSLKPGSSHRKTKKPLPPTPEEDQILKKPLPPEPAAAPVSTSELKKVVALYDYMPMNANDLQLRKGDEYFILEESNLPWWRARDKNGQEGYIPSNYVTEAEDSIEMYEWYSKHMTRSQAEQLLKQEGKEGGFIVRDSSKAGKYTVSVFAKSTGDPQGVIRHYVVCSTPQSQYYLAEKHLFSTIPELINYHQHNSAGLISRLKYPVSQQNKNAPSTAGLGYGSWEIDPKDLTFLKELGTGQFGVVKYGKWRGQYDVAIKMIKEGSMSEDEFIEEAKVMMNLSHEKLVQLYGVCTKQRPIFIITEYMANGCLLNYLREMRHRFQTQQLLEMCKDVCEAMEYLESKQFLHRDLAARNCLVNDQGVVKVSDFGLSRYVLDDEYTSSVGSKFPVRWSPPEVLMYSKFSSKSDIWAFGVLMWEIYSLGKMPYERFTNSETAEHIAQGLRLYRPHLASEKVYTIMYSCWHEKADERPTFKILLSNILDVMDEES

[10] = target: cGMP-inhibited 3',5'-cyclic phosphodiesterase 3A (Homo sapiens, UniProt Q14432); experiment: Selectivity interaction (Safety Panel 44tm (Eurofins)) EUB0000162b PDE3A; conditions: at 10 µM
Chain of cGMP-inhibited 3',5'-cyclic phosphodiesterase 3A (Q14432 whole entry): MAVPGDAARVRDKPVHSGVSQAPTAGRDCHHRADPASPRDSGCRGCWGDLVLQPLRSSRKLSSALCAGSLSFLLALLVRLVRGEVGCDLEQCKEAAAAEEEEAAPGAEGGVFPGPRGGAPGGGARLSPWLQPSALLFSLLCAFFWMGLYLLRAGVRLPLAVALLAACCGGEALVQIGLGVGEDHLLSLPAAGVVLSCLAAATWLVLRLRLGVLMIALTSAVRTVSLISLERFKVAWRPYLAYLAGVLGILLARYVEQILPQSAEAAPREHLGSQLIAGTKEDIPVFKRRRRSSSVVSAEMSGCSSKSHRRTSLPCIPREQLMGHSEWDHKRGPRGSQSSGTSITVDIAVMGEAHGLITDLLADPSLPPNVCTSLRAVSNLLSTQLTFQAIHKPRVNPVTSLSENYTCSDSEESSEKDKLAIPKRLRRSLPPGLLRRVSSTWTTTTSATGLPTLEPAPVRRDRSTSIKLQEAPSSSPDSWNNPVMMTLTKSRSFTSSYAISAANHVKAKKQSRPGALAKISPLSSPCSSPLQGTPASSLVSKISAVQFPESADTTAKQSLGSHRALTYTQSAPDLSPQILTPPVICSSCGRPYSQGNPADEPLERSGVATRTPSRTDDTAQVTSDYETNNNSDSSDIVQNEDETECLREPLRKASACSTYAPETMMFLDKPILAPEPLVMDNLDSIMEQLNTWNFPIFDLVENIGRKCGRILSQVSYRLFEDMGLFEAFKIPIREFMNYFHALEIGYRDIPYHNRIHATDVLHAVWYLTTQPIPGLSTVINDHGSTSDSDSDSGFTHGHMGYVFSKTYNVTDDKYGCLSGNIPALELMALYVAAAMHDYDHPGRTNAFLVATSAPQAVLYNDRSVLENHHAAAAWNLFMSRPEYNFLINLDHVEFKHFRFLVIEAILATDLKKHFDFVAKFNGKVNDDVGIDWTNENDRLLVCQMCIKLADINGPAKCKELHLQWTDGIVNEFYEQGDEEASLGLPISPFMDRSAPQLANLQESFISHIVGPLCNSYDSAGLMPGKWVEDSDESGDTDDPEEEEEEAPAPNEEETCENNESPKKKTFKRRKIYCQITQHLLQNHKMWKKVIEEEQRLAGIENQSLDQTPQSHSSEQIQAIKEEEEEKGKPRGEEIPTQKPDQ

Chain of Rho-associated protein kinase 2 (O75116 whole entry, looked up): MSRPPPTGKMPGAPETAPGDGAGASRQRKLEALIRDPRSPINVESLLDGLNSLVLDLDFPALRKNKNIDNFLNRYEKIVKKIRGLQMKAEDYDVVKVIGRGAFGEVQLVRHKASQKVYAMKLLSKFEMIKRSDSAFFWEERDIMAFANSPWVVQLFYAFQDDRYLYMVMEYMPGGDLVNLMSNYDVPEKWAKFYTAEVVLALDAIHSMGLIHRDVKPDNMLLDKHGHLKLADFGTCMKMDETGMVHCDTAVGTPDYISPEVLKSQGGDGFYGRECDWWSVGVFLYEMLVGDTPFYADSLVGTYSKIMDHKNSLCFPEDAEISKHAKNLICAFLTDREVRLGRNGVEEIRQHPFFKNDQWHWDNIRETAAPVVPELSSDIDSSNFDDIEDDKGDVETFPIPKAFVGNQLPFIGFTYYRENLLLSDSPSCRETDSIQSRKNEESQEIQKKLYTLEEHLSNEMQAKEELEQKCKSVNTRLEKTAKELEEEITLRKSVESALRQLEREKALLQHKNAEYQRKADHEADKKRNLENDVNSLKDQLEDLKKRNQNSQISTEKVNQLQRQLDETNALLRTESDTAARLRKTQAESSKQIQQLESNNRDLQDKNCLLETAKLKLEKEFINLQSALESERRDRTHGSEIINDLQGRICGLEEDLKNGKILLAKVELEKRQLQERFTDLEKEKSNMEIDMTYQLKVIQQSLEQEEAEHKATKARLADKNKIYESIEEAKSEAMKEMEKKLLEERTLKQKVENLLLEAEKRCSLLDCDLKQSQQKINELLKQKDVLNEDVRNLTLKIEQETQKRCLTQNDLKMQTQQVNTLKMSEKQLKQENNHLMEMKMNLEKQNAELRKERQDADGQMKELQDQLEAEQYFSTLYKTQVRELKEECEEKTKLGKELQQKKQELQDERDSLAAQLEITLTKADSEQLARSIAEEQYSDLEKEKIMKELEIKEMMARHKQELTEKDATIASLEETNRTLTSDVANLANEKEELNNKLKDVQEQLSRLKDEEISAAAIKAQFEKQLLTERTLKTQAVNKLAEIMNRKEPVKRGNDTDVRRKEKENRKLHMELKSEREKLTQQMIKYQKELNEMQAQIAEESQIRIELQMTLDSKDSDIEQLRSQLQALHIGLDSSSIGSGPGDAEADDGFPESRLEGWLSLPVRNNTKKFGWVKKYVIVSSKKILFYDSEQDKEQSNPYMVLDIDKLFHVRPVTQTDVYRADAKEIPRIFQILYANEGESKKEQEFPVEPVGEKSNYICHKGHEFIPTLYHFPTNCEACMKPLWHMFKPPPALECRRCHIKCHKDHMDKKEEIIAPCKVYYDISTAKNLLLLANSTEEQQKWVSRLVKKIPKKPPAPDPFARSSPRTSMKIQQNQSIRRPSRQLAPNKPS

## Cc1cnc(Nc2ccc(F)cc2Cl)nc1-c1c[nH]c(C(=O)N[C@H](CO)c2cccc(Cl)c2)c1
[1]
  % of inhibition: 57%

## CC[C@@H]1[C@H](F)C(=O)N[C@@H]1COc1nccc2cc(C(N)=O)c(OC)cc12 [ZIMLOVISERTIB]
[2]
  % of inhibition: -7.1%
[3]
  % of inhibition: 0.413%

## Cn1cc(-n2cnc3c(NCc4nc5cc(Cl)c(Cl)cc5[nH]4)nc(N4CCOCC4)nc32)cn1
[4]
  % of control: 0.242%

## CCN(CC)CCCCNc1ncc2cc(-c3cc(OC)cc(OC)c3)c(NC(=O)NC(C)(C)C)nc2n1
[5]
  % of control: 100%

## COc1cc(N(C)c2ccnc3ccc(C(F)(F)F)cc23)cc(OC)c1OC
[6]
  % binding: 94%

## Cc1ccc(-c2ccc3c(ccc4sc5c(c43)NC[C@@H](C)NC5=O)n2)cn1
[7]
  % of inhibition: 18%

## CN(C)CCOc1ccc(-c2nc(-c3ccncc3)c(-c3ccc4c(c3)CC/C4=N\O)[nH]2)cc1
[8]
  % of control: 100%

## N#Cc1cccc(-c2c[nH]c3ncnc(N4CCOCC4)c23)c1
[9]
  % of inhibition: 10%

## CN(C)C(=O)Cn1cc(-c2ccc(-c3cncc4ccccc34)cc2)cn1
[10]
  % of control: 82%
